Publication PMC3401643 (2009)
pIC50: −log10 of the molar value.

Biological target: T1, retinoid X receptor α (RXRα) (Homo sapiens, UniProt P19793)
T1 sequence (P19793 223-462): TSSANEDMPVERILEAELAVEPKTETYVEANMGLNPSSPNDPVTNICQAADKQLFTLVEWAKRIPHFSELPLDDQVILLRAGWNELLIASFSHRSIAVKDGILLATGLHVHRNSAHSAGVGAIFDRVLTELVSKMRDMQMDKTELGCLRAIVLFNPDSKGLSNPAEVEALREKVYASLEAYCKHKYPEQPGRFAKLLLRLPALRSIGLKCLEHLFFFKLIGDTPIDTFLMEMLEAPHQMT
Format: binding

C[C@@H](C(=O)O)c1ccc(-c2ccccc2)c(F)c1 [R-Flur, (R)-flurbiprofen]
pIC50: ~4.12
